Laboratory results taken from EPA's ToxValDB 9.5 (doi:10.2903/j.efsa.2010.1721).

Assays:
Anas platyrhynchos = details: oral, mortality
Apis mellifera = details: acute; duration: 48 hours; oral; unspecified; mortality
Canidae = details: chronic; duration: 1 years; oral; Dog Other; organ weight
Colinus virginianus = details: for LD50: acute, oral, mortality
Daphnia magna = details: chronic/long-term; duration: 21 days; reproduction
Mus musculus = details: acute; oral; mortality
Oryctolagus sp. = details: reproduction developmental; body weight
Tagia sp. = details: acute; duration: 14 days; mortality
Aphidius rhopalosiphi = test: LR50; higher = less toxic; details: not reported; mortality
Typhlodromus pyri = test: LR50; higher = less toxic; details: not reported; mortality

SMILES: CCOc1ccc(NC(=O)OC(C)C)cc1OCC [Diethofencarb]
- LD50 (Anas platyrhynchos; acute, unspecified): > 2250 mg/kg-day
- LD50 (Anas platyrhynchos; short-term, feed): > 1630 mg/kg-day
- LD50 (Apis mellifera): > 100 µg/piece
- NOAEL (Canidae): 50 mg/kg-day
- LD50 (Colinus virginianus; diet): > 1810 mg/kg-day
- LD50 (Colinus virginianus): > 2250 mg/kg-day
- NOEL (Colinus virginianus; reproduction developmental): 78.7 mg/kg-day
- NOEC (Daphnia magna): 0.032 mg/L
- LD50 (Mus musculus): > 5000 mg/kg-day
- LC50 (Oncorhynchus mykiss; acute, duration: 96 hours, mortality): > 10 mg/L
- NOEC (Oncorhynchus mykiss; chronic/long-term, duration: 88 days, growth): 0.072 mg/L
- NOEL (Oryctolagus sp.): 300 mg/kg-day
- LD50 (Rattus norvegicus; acute, oral, mortality): > 5000 mg/kg-day
- NOAEL (Rattus norvegicus; chronic, duration: 2 years, organ weight): 42.7 mg/kg-day
- LC50 (Tagia sp.): > 1000 mg/kg
- LR50 (Aphidius rhopalosiphi): > 1500 g/ha
- LR50 (Typhlodromus pyri): 7.2 g/ha
